Structures are written as SMILES. Converted amounts (≈) assume the structure as drawn. Read-outs that look alike come from different tables or passages of the source.

In test [1] the test system is Methicillin-resistant S. aureus ATCC 33591 (MRSA). As to the kind of experiment: MIC determination with authentic compounds resynthesized in solution. The test is classed as cell-based. Particulars: Staphylococcus aureus; Table 3; authentic sample, only trans isomers of chalcones; error reflects step size in the serial dilutions. The procedure: (§1) For estimated MIC determination, DMSO was added to the dried compound residue obtained from a single spot to afford ca. 100 μL of a 2 mM stock solution. Aliquots (5 μL) of these solutions were added to a 96-well plate, followed by 195 μL of diluted S. aureus 10390 (10^6 CFUs/mL) to yield ca. 50 μM final concentrations. The plates were swirled for 1 h to ensure compound dissolution, incubated for 12 h at 37° C., and the absorbance at 595 nm was recorded using a plate reader. […] Actual MIC values were determined for lead compounds resynthesized in solution using an analogous procedure with solutions of known concentration (see).
(§2) Dose response growth inhibition curves were determined for each active compound (resynthesized in solution) against S. aureus 10390 (SA) and methicillin-resistant S. aureus 33591 (MRSA). […] MIC assays were performed in quadruplicate.

The subject of test [2] is S. aureus 10390. As to the kind of experiment: Time-dependent bacterial killing curves. The class given is cell-based, Staphylococcus aureus. The conditions noted are these: 0.5x to 4x MIC, 0-6 h. The procedure:
Solutions of compounds 4Bv, 6Ao, 9Cf, and linezolid were prepared in DMSO over a range of concentrations. […] At 0, 2, 4, and 6 h time points, […] samples were withdrawn from the test tubes, diluted into 10 mL of LB broth in a test tube, and swabbed in duplicate on agar plates to determine CFUs. These plates were incubated at 37° C. for 24 h, after which time the colonies were counted visually. […] Instead, 200 μL was removed from the test tube and directly swabbed on the agar plates.

The test system of test [3] is S. aureus ATCC 10390. As to the kind of experiment: MIC determination with authentic compounds resynthesized in solution. The class given is cell-based, Staphylococcus aureus. The conditions noted are these: for MIC: Staphylococcus aureus, ATCC10390. The method, then: as §1, §2
Test [4] has as its system S. aureus ATCC 10390. The test is described as follows: Kirby-Bauer disk diffusion assay on compound spots from cleaved macroarray. The class given is cell-based, Staphylococcus aureus. Particulars: loadings 30 μg/spot, 18 h incubation. The procedure: While the heterocyclic libraries were being synthesized, the chalcone macroarrays were analyzed using various direct assay techniques such as the Kirby-Bauer disk diffusion assay (FIG. 2E). Bauer, A. W.; Kirby, […].; Turck, M. Technical Bulletin of the Registry of Medical Technologists 1966, 36, 49-52. For this assay, the macroarray members are punched out from the membrane, cleaved from the support with TFA vapor, neutralized with ammonia vapor, and then placed on an agar bed inoculated with S. aureus. After incubating overnight, different diameters of zones of inhibition are measured as a factor of potency as well as solubility in the medium. Ammonia vapor neutralization was key in the disk diffusion assay, otherwise residual TFA vapor created a false positive signature. However, in this method, macroarrays have to be made in triplicate one for a replicate and one for compound characterization. We first evaluated test chalcone macroarrays (3) in antibacterial assays against S. aureus. Because the macroarrays were prepared on cellulose filter paper, we had convenient access to the compounds in disk form for standard disk diffusion assays. Compound spots were punched out of the macroarrays, subjected to vapor phase cleavage with acid (TFA), and neutralized (NH3) to afford disks containing ca. 30 μg of adsorbed compound [8]. These disks were manually placed on lawns of S. aureus, and zones of inhibition were measured after an 18 h incubation period. […] However, this antibacterial assay format had drawbacks: (1) the entire sample of compound was consumed during the assay, and thus replicate arrays needed to be synthesized to confirm activity, and (2) manipulating large numbers of compound disks was relatively labor intensive. Compound spots were cleaved with TFA and neutralized with NH3 as described herein. […] Compound spots were placed onto the agar, the plate was incubated at 37° C. for 18 h, and the diameters of the zones of inhibition were measured. […] Compound spots were subjected to the TFA cleavage conditions described above. The spots were next subjected to NH3 vapor to neutralize any remaining TFA. […] Vials containing the spots (or intact macroarrays) were placed inside a small evaporating dish, and this was placed into the NH4OH solution. The Pyrex dish was covered, and NH3 vapor was allowed to slowly diffuse into the vials. After 1 h, the vials were removed from the NH3 chamber, and the spots were allowed to stand open in a fume hood for at least 15 min to vent prior to analysis in the following assays. This afforded dry, paper disks containing adsorbed compound. […] The plates were removed, and the diameters of the zones of inhibition were measured in mm using a ruler (see FIG. 1A).
Background: A growth-free zone around the sample is the usual read-out of agar diffusion tests.

The test system of test [5] is B. subtilis subsp. spizizenii ATCC 6633. The test is described as follows: MIC determination, species selectivity. The class given is cell-based. The conditions noted are these: Bacillus subtilis, ATCC6633; authentic sample, only trans isomers of chalcones; error reflects step size. The procedure: (§3) Each compound from Table 3 was tested for inhibitory activity at 2.5, 5, 7.5, 10, 15, 20, 25, and 30 μM in the susceptible overlaid strains: B. subtilis ATCC 6633, S. epidermidis ATCC 12228, and K. pneumoniae ATCC 4352. MIC assays were run in quadruplicate as described above (with shaking).

Test [6] has as its system S. epidermidis ATCC 12228. As to the kind of experiment: MIC determination, species selectivity. The class given is cell-based. Particulars: Staphylococcus epidermidis, ATCC12228; authentic sample, only trans isomers of chalcones; error reflects step size. The procedure:
as §3

For the compound `O=C(/C=C/c1cc(C(F)(F)F)cc(C(F)(F)F)c1)c1cccc(O)c1` [Compound 4Bv, 3′-hydroxy-3,5-bis(trifluoromethyl)chalcone], the MIC (commonly the lowest concentration that inhibits growth of the organism) in test [1] came to 3 ± 0.5 µM (≈ 1.08 µg/mL); in test [3] (Table 2, authentic sample synthesized according to standard techniques, read-out: observed MIC) it was 3.3 ± 0.3 µM (≈ 1.19 µg/mL); in test [3] (Table 3, authentic sample, only trans isomers of chalcones, error reflects step size in the serial dilutions, read-out: S. aureus MIC), 3.5 ± 0.5 µM (≈ 1.26 µg/mL); in test [5], 8.8 ± 1.2 µM (≈ 3.17 µg/mL); in test [6], 3.8 ± 1.2 µM (≈ 1.37 µg/mL). In test [2], the “mode of activity (bacteriostatic or bactericidal)” value is reported as “bacteriostatic”. The “MIC against S. aureus 10390” value in test [3] (values quoted in killing-curve protocol, unit not given) was “ca. 3.5”. This compound also had a Zones of inhibition in test [4] of 22 mm.
